Marks after values point to notes of the source that are not given here.

The values that follow come from PMC9562916, “Investigation of the Phenolic Component Bioavailability Using the In Vitro Digestion/Caco-2 Cell Model, as well as the Antioxidant Activity in Chinese Red Wine” (Foods, 2022).

Test system in the first data set: not listed separately
The data set can be described thus: Caco-2 transepithelial transport assay of digested red wine. The data set is classed as in vitro ADME, human. Conditions: human, Caco-2, apical to basolateral, digested Cabernet red wine; read-out: Apparent Permeability Coefficients, Cabernet. The procedure: (§1) Caco-2 cells were inoculated following the method of Hubatsch et al. […] Briefly, a 5% v/v of CO2 incubator at 37 °C was used to house the cells. […] Caco-2 cells were sub-cultured when they reached 80-90% of the adherent growth by treating them with a 0.05% v/v of trypsin-EDTA solution. The culture between passages 35 and 40 was used for the following experiment. Transport experiments were performed according to the method of Wu et al. with slight modifications. First, 1.0 × 10^5 Caco-2 cells were inoculated onto 12 mm transparent cell culture plates (Transwell). Media were carefully injected into the apical (0.5 mL) and basolateral (1.5 mL) sides of the Transwell plates. The cell culture medium had to be replaced every other day until the cells formed a monolayer. The integrity and transport ability of the Caco-2 cell monolayer were evaluated by measuring the trans-epithelial electrical resistance (TEER) with a MilliCell voltammeter (Millicell ERS-2, Merck Millipore, Billerica, MA, USA). […] When the cell activity exceeded 0.9, a transport experiment was conducted. The apical side was injected with a digested red wine sample (0.5 mL) and was thoroughly mixed with […] Balanced Salt Solution (HBSS) buffer solution. […] The cells were then cultured in a 37 °C, 5% CO2 incubator. Then, 0.25 mL samples were separately taken from the basolateral side of the monolayer. An equal volume of HBSS buffer was then added every half hour from the beginning of the culture until the end of the culture at 6 h. The collected samples were subsequently filtered and placed in the sample bottle for further HPLC analysis. This experiment was repeated several times to collect enough samples for the next antioxidant test. […] The Agilent 1100 series HPLC instrument was used; it was equipped with a degasser, quaternary pump solvent delivery, a DAD system, and a single quadrupole mass detector coupled with an electrospray ionization LC-MS interface. […] The column temperature was kept at 30 °C, the injection volume was 10 μL, and the flow rate was 0.3 mL/min. The eluents were water and formic acid in a 99:1 (v/v) (A) ratio and 100% acetonitrile (B). The gradient elution procedure was as follows: (1) 3% B solvent at 0 min, (2) 3 to 16% B solvent at 10 min, (3) 16 to 20% B solvent at 30 min, and (4) 20% B solvent maintained until the procedure was completed. The MS configuration was as follows: ESI, negative ion mode, nebulizer pressure of 30 psi, a dry gas flow rate of 10 mL/min, dry gas temperature of 350 °C, and a scan rate of 100~1200 m/z. PCs were determined according to their retention times, UV/VIS spectra, and high-resolution MS spectra, in addition to a comparison with the standards. […] If a standard was unavailable, a structurally related compound was used. Putative annotations were made using spectral features and literature information on the chromatographic properties and mass spectra records from the metabolome database. A standard curve was drawn using methanol solutions with different concentrations as the standards. […] PCs All of the samples were determined in triplicate.
Take `Oc1cc(O)c2c(c1)O[C@H](c1ccc(O)c(O)c1)[C@H](O)C2` [Epicatechin]: the Papp at 6 h stood at 11.4 ± 1.77 ×10⁻⁶ cm/s.

Still in this data set, the particulars now being: human, Caco-2, apical to basolateral, digested Helanshan red wine; read-out: Apparent Permeability Coefficients, Helanshan.
Turning to `Oc1cc(O)c2c(c1)O[C@H](c1ccc(O)c(O)c1)[C@H](O)C2` [Epicatechin], the Papp at 6 h was determined as 11.5 ± 1.53 ×10⁻⁶ cm/s.

Still in this data set, the particulars now being: human, Caco-2, apical to basolateral, digested Tianzhu red wine; read-out: Apparent Permeability Coefficients, Tianzhu.
As to `Oc1cc(O)c2c(c1)O[C@H](c1ccc(O)c(O)c1)[C@H](O)C2` [Epicatechin], the Papp at 6 h turned out to be 11.4 ± 1.46 ×10⁻⁶ cm/s.

The subject of another data set is Caco-2 cell monolayer. The data set is described as above. In kind it is in vitro ADME, human. As to conditions: Cabernet red wine, digested sample, basolateral side of Caco-2 monolayer. As to the method:
as §1
On to `COc1cc(-c2[o+]c3cc(O)cc(O)c3cc2O[C@@H]2O[C@H](CO)[C@@H](O)[C@H](O)[C@H]2O)cc(OC)c1O` [Malvidin-3-glc, malvidin-3-glucoside], for which the “PC Contents, Cabernet, Transmembrane” value is 62.38 ± 3.24 ^a mg/L.
Consider `O=c1c(OC2O[C@H](CO)[C@@H](O)[C@H](O)[C@H]2O)c(-c2cc(O)c(O)c(O)c2)oc2cc(O)cc(O)c12` (some centres unmarked) [Myricetin-3-glc], for which the “PC Contents, Cabernet, Transmembrane” value is 0.81 ± 0.04 ^a mg/L.
With `O=c1c(O[C@@H]2O[C@H](CO)[C@@H](O)[C@H](O)[C@H]2O)c(-c2ccc(O)c(O)c2)oc2cc(O)cc(O)c12` [Quercetin-3-glc], the “PC Contents, Cabernet, Transmembrane” value is reported as 7.47 ± 0.23 ^a mg/L.

The same data set, now with this note: Helanshan red wine, digested sample, basolateral side of Caco-2 monolayer.
Turning to `COc1cc(-c2[o+]c3cc(O)cc(O)c3cc2O[C@@H]2O[C@H](CO)[C@@H](O)[C@H](O)[C@H]2O)cc(OC)c1O` [Malvidin-3-glc, malvidin-3-glucoside], the “PC Contents, Helanshan, Transmembrane” value is 35.55 ± 1.46 ^a mg/L.
Take `O=c1c(OC2O[C@H](CO)[C@@H](O)[C@H](O)[C@H]2O)c(-c2cc(O)c(O)c(O)c2)oc2cc(O)cc(O)c12` (some centres unmarked) [Myricetin-3-glc]: the “PC Contents, Helanshan, Transmembrane” value is reported as 0.64 ± 0.02 ^a mg/L.
On the same count and under the same terms, for `O=c1c(O[C@@H]2O[C@H](CO)[C@@H](O)[C@H](O)[C@H]2O)c(-c2ccc(O)c(O)c2)oc2cc(O)cc(O)c12` [Quercetin-3-glc] the value was 5.10 ± 0.28 ^a mg/L.

The data set is the same for the next values; noted with them: Tianzhu red wine, digested sample, basolateral side of Caco-2 monolayer.
Turning to `COc1cc(-c2[o+]c3cc(O)cc(O)c3cc2O[C@@H]2O[C@H](CO)[C@@H](O)[C@H](O)[C@H]2O)cc(OC)c1O` [Malvidin-3-glc, malvidin-3-glucoside], the “PC Contents, Tianzhu, Transmembrane” value is reported as 20.68 ± 1.05 ^a mg/L.
Still for that read-out and setting: for `O=c1c(OC2O[C@H](CO)[C@@H](O)[C@H](O)[C@H]2O)c(-c2cc(O)c(O)c(O)c2)oc2cc(O)cc(O)c12` (some centres unmarked) [Myricetin-3-glc] the value was 8.61 ± 0.43 ^a mg/L; for `O=c1c(O[C@@H]2O[C@H](CO)[C@@H](O)[C@H](O)[C@H]2O)c(-c2ccc(O)c(O)c2)oc2cc(O)cc(O)c12` [Quercetin-3-glc], 37.54 ± 1.95 ^a mg/L.

The data set is the same for the next values; noted with them: apical to basolateral, digested Cabernet red wine.
`O=c1c(OC2O[C@H](CO)[C@@H](O)[C@H](O)[C@H]2O)c(-c2cc(O)c(O)c(O)c2)oc2cc(O)cc(O)c12` (some centres unmarked) [Myricetin-3-glc]: the “Apparent Permeability Coefficients, Cabernet” value is 1.38 ± 0.17 ^a ×10^−6 cm/s.
Still for that read-out and setting: the result for `O=c1c(O[C@@H]2O[C@H](CO)[C@@H](O)[C@H](O)[C@H]2O)c(-c2ccc(O)c(O)c2)oc2cc(O)cc(O)c12` [Quercetin-3-glc] reads 2.31 ± 0.27 ^a ×10^−6 cm/s.

Staying with this data set, now noted: apical to basolateral, digested Helanshan red wine.
Consider `COc1cc(-c2[o+]c3cc(O)cc(O)c3cc2O[C@@H]2O[C@H](CO)[C@@H](O)[C@H](O)[C@H]2O)cc(OC)c1O` [Malvidin-3-glc, malvidin-3-glucoside], for which the “Apparent Permeability Coefficients, Helanshan” value was 25.19 ± 3.99 ^a ×10^−6 cm/s.
Take `O=c1c(OC2O[C@H](CO)[C@@H](O)[C@H](O)[C@H]2O)c(-c2cc(O)c(O)c(O)c2)oc2cc(O)cc(O)c12` (some centres unmarked) [Myricetin-3-glc]: the “Apparent Permeability Coefficients, Helanshan” value is recorded as 1.41 ± 0.21 ^a ×10^−6 cm/s.
`O=c1c(O[C@@H]2O[C@H](CO)[C@@H](O)[C@H](O)[C@H]2O)c(-c2ccc(O)c(O)c2)oc2cc(O)cc(O)c12` [Quercetin-3-glc]: the “Apparent Permeability Coefficients, Helanshan” value is on record as 2.19 ± 0.26 ^a ×10^−6 cm/s.

Still in this data set, the particulars now being: apical to basolateral, digested Tianzhu red wine.
Turning to `COc1cc(-c2[o+]c3cc(O)cc(O)c3cc2O[C@@H]2O[C@H](CO)[C@@H](O)[C@H](O)[C@H]2O)cc(OC)c1O` [Malvidin-3-glc, malvidin-3-glucoside], the “Apparent Permeability Coefficients, Tianzhu” value is reported as 25.37 ± 4.11 ^a ×10^−6 cm/s.
The same measure, in the same setting: the result for `O=c1c(OC2O[C@H](CO)[C@@H](O)[C@H](O)[C@H]2O)c(-c2cc(O)c(O)c(O)c2)oc2cc(O)cc(O)c12` (some centres unmarked) [Myricetin-3-glc] reads 1.35 ± 0.19 ^a ×10^−6 cm/s; that for `O=c1c(O[C@@H]2O[C@H](CO)[C@@H](O)[C@H](O)[C@H]2O)c(-c2ccc(O)c(O)c2)oc2cc(O)cc(O)c12` [Quercetin-3-glc], 2.23 ± 0.22 ^a ×10^−6 cm/s.

Test system in another data set: not listed separately
As to the kind of experiment: PC content of red wine before and after in vitro simulated gastrointestinal digestion (HPLC). The data set is classed as in vitro ADME. As to conditions: Cabernet red wine, after simulated gastrointestinal digestion. The procedure: The digestion procedure was carried out by adapting the method of Brodkorb et al. and Gómez et al.. […] One milliliter (50 units/mL) of porcine amylase was prepared in a 15 mM Na₃PO₄ buffer solution (pH adjusted to 6.8) containing 1.5 mM CaCl2, and it was added to the red wine solution. After 5 min, 4.5 mL of 0.12 M HCl was added to the mixture to adjust the pH to 2.4. One milliliter of porcine pepsin (0.02 mg/L) was dissolved in a 20 mM HCl solution. The mixture was then maintained at 37 °C for 120 min. The digestion mixture was then centrifuged at 8000× g for 15 min to obtain samples from the gastric digestion phase. […] The mixture was incubated at pH 6.5 at 37 °C for 3 h before being centrifuged. The extracts of the intestinal phase were the supernatants. The same operation was done three times, and each sample was stored in a refrigerator (−20 °C) immediately for further analysis.
The Pati method was adopted, with slight modifications, to measure the content of the PCs. The Agilent 1100 series HPLC instrument was used; it was equipped with a degasser, quaternary pump solvent delivery, a DAD system, and a single quadrupole mass detector coupled with an electrospray ionization LC–MS interface. Briefly, th samples were injected into a Zorbax SB C18 reversed-phase column (5 µm,150 × 2.1 mm, Agilent Technologies, Santa Clara, CA, USA) using an autosampler after filtering through 0.45 µm cellulose acetate syringe filters. The column temperature was kept at 30 °C, the injection volume was 10 µL, and the flow rate was 0.3 mL/min. The eluents were water and formic acid in a 99:1 (v/v) (A) ratio and 100% acetonitrile (B). […] The MS configuration was as follows: ESI, negative ion mode, nebulizer pressure of 30 psi, a dry gas flow rate of 10 mL/min, dry gas temperature of 350 °C, and a scan rate of 100~1200 m/z. PCs were determined according to their retention times, UV/VIS spectra, and high-resolution MS spectra, in addition to a comparison with the standards. […] Putative annotations were made using spectral features and literature information on the chromatographic properties and mass spectra records from the metabolome database. A standard curve was drawn using methanol solutions with different concentrations as the standards. The limits of detection and quantitation were calculated according to the signal-to-noise ratio (limit of detection: signal-to-noise ratio ≥ 3; limit of quantitation: signal-to-noise ratio ≥ 10). […] PCs All of the samples were determined in triplicate.
Consider `COc1cc(-c2[o+]c3cc(O)cc(O)c3cc2O[C@@H]2O[C@H](CO)[C@@H](O)[C@H](O)[C@H]2O)cc(OC)c1O` [Malvidin-3-glc, malvidin-3-glucoside], for which the “PC Contents, Cabernet, After Digestion” value is 153.43 ± 5.83 ^b mg/L.
In the case of `O=c1c(OC2O[C@H](CO)[C@@H](O)[C@H](O)[C@H]2O)c(-c2cc(O)c(O)c(O)c2)oc2cc(O)cc(O)c12` (some centres unmarked) [Myricetin-3-glc], the “PC Contents, Cabernet, After Digestion” value is listed as 36.91 ± 1.10 ^b mg/L.
On the same count and under the same terms, the result for `O=c1c(O[C@@H]2O[C@H](CO)[C@@H](O)[C@H](O)[C@H]2O)c(-c2ccc(O)c(O)c2)oc2cc(O)cc(O)c12` [Quercetin-3-glc] reads 202.22 ± 10.52 ^b mg/L.

Staying with this data set, now noted: Helanshan red wine, after simulated gastrointestinal digestion.
In the case of `COc1cc(-c2[o+]c3cc(O)cc(O)c3cc2O[C@@H]2O[C@H](CO)[C@@H](O)[C@H](O)[C@H]2O)cc(OC)c1O` [Malvidin-3-glc, malvidin-3-glucoside], the “PC Contents, Helanshan, After Digestion” value is 88.2 ± 3.97 ^b mg/L.
Still for that read-out and setting: the result for `O=c1c(OC2O[C@H](CO)[C@@H](O)[C@H](O)[C@H]2O)c(-c2cc(O)c(O)c(O)c2)oc2cc(O)cc(O)c12` (some centres unmarked) [Myricetin-3-glc] reads 28.45 ± 1.51 ^b mg/L; that for `O=c1c(O[C@@H]2O[C@H](CO)[C@@H](O)[C@H](O)[C@H]2O)c(-c2ccc(O)c(O)c2)oc2cc(O)cc(O)c12` [Quercetin-3-glc], 145.43 ± 5.38 ^b mg/L.

Staying with this data set, now noted: Tianzhu red wine, after simulated gastrointestinal digestion.
As for `COc1cc(-c2[o+]c3cc(O)cc(O)c3cc2O[C@@H]2O[C@H](CO)[C@@H](O)[C@H](O)[C@H]2O)cc(OC)c1O` [Malvidin-3-glc, malvidin-3-glucoside], the “PC Contents, Tianzhu, After Digestion” value is listed as 103.8 ± 5.71 ^b mg/L.
Regarding `O=c1c(OC2O[C@H](CO)[C@@H](O)[C@H](O)[C@H]2O)c(-c2cc(O)c(O)c(O)c2)oc2cc(O)cc(O)c12` (some centres unmarked) [Myricetin-3-glc], the “PC Contents, Tianzhu, After Digestion” value is reported as 43.22 ± 1.34 ^b mg/L.
The same measure, in the same setting: for `O=c1c(O[C@@H]2O[C@H](CO)[C@@H](O)[C@H](O)[C@H]2O)c(-c2ccc(O)c(O)c2)oc2cc(O)cc(O)c12` [Quercetin-3-glc] the value was 188.45 ± 8.29 ^b mg/L.
